Test results: US9708316B2 (BRISTOL-MYERS SQUIBB COMPANY, priority 2014, dated 2017)

What was measured:
HIS-TGFβR2 WT = HIS-TGFβR2 WT (Homo sapiens, UniProt P37173); assay: HTRF probe-displacement assay, HIS-TGFβR2 WT; assay type: binding
HIS-TGFβR1 T204D = molecular target: T1, HIS-TGFβR1 T204D (Homo sapiens, UniProt P36897, T204D); assay: HTRF probe-displacement assay, HIS-TGFβR1 T204D; assay type: binding; conditions: read-out: TGFβR1 (μM) IC50
T1 sequence (P36897 34-503 T204D): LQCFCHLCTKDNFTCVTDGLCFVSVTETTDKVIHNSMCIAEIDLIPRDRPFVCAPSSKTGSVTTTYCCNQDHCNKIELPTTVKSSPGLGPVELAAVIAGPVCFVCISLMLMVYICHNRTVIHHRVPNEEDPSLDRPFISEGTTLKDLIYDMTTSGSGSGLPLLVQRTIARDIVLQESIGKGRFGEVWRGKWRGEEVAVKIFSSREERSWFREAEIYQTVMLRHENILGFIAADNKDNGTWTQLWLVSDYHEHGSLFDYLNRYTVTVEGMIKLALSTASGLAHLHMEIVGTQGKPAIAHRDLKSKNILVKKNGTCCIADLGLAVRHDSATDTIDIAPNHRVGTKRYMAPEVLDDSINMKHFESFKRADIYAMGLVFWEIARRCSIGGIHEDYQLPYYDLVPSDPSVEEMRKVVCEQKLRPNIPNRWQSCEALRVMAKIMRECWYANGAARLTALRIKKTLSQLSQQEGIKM

HIS-TGFβR2 WT, sequence (P37173 23-567): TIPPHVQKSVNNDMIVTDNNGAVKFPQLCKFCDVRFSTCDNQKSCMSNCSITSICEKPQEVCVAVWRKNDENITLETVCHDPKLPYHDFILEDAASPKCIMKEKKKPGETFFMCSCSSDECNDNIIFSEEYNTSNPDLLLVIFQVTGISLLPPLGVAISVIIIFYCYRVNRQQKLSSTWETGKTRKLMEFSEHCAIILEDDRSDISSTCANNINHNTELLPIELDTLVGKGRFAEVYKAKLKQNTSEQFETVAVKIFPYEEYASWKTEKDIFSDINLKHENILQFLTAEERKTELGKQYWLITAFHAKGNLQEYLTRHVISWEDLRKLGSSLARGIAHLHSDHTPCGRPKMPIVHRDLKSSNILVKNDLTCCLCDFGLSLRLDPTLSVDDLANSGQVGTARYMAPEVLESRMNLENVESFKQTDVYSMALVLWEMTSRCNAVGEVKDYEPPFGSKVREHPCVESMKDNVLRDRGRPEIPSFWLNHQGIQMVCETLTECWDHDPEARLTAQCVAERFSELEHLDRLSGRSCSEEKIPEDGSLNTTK

| IC50 (HIS-TGFβR2 WT) [µM] | IC50 (HIS-TGFβR1 T204D) [µM] | SMILES |
| --- | --- | --- |
| 0.999 | 0.0885 | COc1ccc(-c2c(-c3ccnc(NC(C)=O)c3)[nH]c3c(C)ccnc23)cn1 [Example 215, N-(4-(3-(6-Methoxypyridin-3-yl)-7-methyl-1H-pyrrolo[3,2-b]pyridin-2-yl)pyridin-2-yl)acetamide] |
| 0.503 | 0.001 | CC(=O)Nc1cc(-c2[nH]c3c(CO)ccnc3c2-c2cccc(Cl)n2)ccn1 [Example 276, N-(4-(3-(6-Chloropyridin-2-yl)-7-(hydroxymethyl)-1H-pyrrolo[3,2-b]pyridin-2-yl)pyridin-2-yl)acetamide] |
| 0.68 | 0.003 | CC(=O)Nc1cc(-c2[nH]c3cccnc3c2-c2ccc(F)c(C)n2)ccn1 [Example 23, N-{4-[3-(5-Fluoro-6-methylpyridin-2-yl)-1H-pyrrolo[3,2-b]pyridin-2-yl]pyridin-2-yl}acetamide] |
| 0.017 | 0.003 | COc1ccc(-c2c(-c3ccnc(NC(C)=O)c3)[nH]c3c(C(O)C(C)C)ccnc23)cn1 (stereo not drawn) [Example 300, N-(4-(7-(1-Hydroxy-2-methylpropyl)-3-(6-methoxypyridin-3-yl)-1H-pyrrolo[3,2-b]pyridin-2-yl)pyridin-2-yl)acetamide] |
| 6.37 | 0.021 | COc1ccc(-c2c(-c3ccnc(NC(C)=O)c3)[nH]c3c(C(=O)NC(CO)CO)ccnc23)cn1 [Example 59, N-(1,3-Dihydroxypropan-2-yl)-2-(2-acetamidopyridin-4-yl)-3-(6-methoxypyridin-3-yl)-1H-pyrrolo[3,2-b]pyridine-7-carboxamide] |
| 0.16 | 0.007 | COc1ccc(-c2c(-c3ccnc(NC(C)=O)c3)[nH]c3cc(CN)cnc23)cn1 [Example 79, N-(4-(6-(Aminomethyl)-3-(6-methoxypyridin-3-yl)-1H-pyrrolo[3,2-b]pyridin-2-yl)pyridin-2-yl)acetamide] |
| 0.038 | 0.002 | COc1ccc(-c2c(-c3ccnc(NC(C)=O)c3)[nH]c3c(C(C)(C)O)ccnc23)cn1 [Example 299, N-(4-(7-(2-Hydroxypropan-2-yl)-3-(6-methoxypyridin-3-yl)-1H-pyrrolo[3,2-b]pyridin-2-yl)pyridin-2-yl)acetamide] |
| > 15 | 0.004 | COc1ccc(-c2c(-c3ccnc(NC(C)=O)c3)[nH]c3cc(Cl)cnc23)nc1 [Example 47, N-{4-[6-Chloro-3-(5-methoxypyridin-2-yl)-1H-pyrrolo[3,2-b]pyridin-2-yl]pyridin-2-yl}acetamide] |
| 0.11 | 0.002 | CC(=O)Nc1cc(-c2[nH]c3cc(F)cnc3c2-c2cccc(Cl)n2)ccn1 [Example 38, N-{4-[3-(6-Chloropyridin-2-yl)-6-fluoro-1H-pyrrolo[3,2-b]pyridin-2-yl]pyridin-2-yl}acetamide] |
| 7.35 | 0.005 | COc1cnc2c(-c3cccc(C)n3)c(-c3ccnc(NC(=O)CN(C)C)c3)[nH]c2c1 [Example 116, 2-(Dimethylamino)-N-{4-[6-methoxy-3-(6-methylpyridin-2-yl)-1H-pyrrolo[3,2-b]pyridin-2-yl]pyridin-2-yl}acetamide] |
| 0.723 | 0.001 | CCC(OC(N)=O)c1ccnc2c(-c3ccc(OC)nc3)c(-c3ccnc(NC(C)=O)c3)[nH]c12 (stereo not drawn) [Example 302, 1-(2-(2-Acetamidopyridin-4-yl)-3-(6-methoxypyridin-3-yl)-1H-pyrrolo[3,2-b]pyridin-7-yl)propyl carbamate] |
| 3.67 | 0.004 | O=C(CNCCN1CCOCC1)Nc1cc(-c2[nH]c3cc(Cl)cnc3c2-c2ccc(F)cn2)ccn1 [Example 241, N-{4-[6-Chloro-3-(5-fluoropyridin-2-yl)-1H-pyrrolo[3,2-b]pyridin-2-yl]pyridin-2-yl}-2-{[2-(morpholin-4-yl)ethyl]amino}acetamide] |
| 1.78 | 0.001 | CC(=O)Nc1cc(-c2[nH]c3c([C@@H](C)O)ccnc3c2-c2cccc(C(F)F)n2)ccn1 (single isomer, unassigned) [Example 146] |
| > 15 | 0.001 | COc1ccc(-c2c(-c3ccnc(NC(=O)CN4CCN(CCO)CC4)c3)[nH]c3cc(OC)cnc23)nc1 [Example 120, 2-[4-(2-Hydroxyethyl)piperazin-1-yl]-N-{4-[6-methoxy-3-(5-methoxypyridin-2-yl)-1H-pyrrolo[3,2-b]pyridin-2-yl]pyridin-2-yl}acetamide] |
| 1.1 | 0.017 | CNC(=O)c1cc(Cl)nc2c(-c3ccc(OC)nc3)c(-c3ccnc(NC(C)=O)c3)[nH]c12 [Example 56, 5-Chloro-2-(2-acetamidopyridin-4-yl)-3-(6-methoxypyridin-3-yl)-N-methyl-1H-pyrrolo[3,2-b]pyridine-7-carboxamide] |
| 0.11 | 0.003 | CC(=O)Nc1cc(-c2[nH]c3cc(Cl)cnc3c2-c2cccc(F)n2)ccn1 [Example 45, N-{4-[6-Chloro-3-(6-fluoropyridin-2-yl)-1H-pyrrolo[3,2-b]pyridin-2-yl]pyridin-2-yl}acetamide] |
| > 15 | 0.058 | CC(=O)Nc1cc(-c2[nH]c3cc(Cl)cnc3c2-c2nc(C)ns2)ccn1 [Example 179, N-(4-(6-chloro-3-(3-methyl-1,2,4-thiadiazol-5-yl)-1H-pyrrolo[3,2-b]pyrdin-2-yl)pyridin-2-yl)acetamide] |
| > 15 | 0.032 | COc1ccc(-c2c(-c3ccnc(NC(C)=O)c3)[nH]c3cc(Cl)cnc23)nc1C [Example 170, N-(4-(6-Chloro-3-(5-methoxy-6-methylpyridin-2-yl)-1H-pyrrolo[3,2-b]pyridin-2-yl)pyridin-2-yl)acetamide] |
| 3.84 | 0.001 | COCCCc1ccnc2c(-c3cccc(C(F)F)n3)c(-c3ccnc(NC(C)=O)c3)[nH]c12 [Example 131, N-(4-{3-[6-(Difluoromethyl)pyridin-2-yl]-7-(3-methoxypropyl)-1H-pyrrolo[3,2-b]pyridin-2-yl}pyridin-2-yl)acetamide] |
| 0.037 | 0.0005 | CC(=O)Nc1cc(-c2[nH]c3cc(Cl)cnc3c2-c2nc(C)cs2)ccn1 [Example 176, N-(4-(6-Chloro-3-(4-methylthiazol-2-yl)-1H-pyrrolo[3,2-b]pyridin-2-yl)pyridin-2-yl)acetamide] |
| 0.01 | 0.057 | CC(=O)Nc1cc(-c2[nH]c3cccnc3c2-c2cnc(F)c(F)c2)ccn1 [Example 10, N-{4-[3-(5,6-Difluoropyridin-3-yl)-1H-pyrrolo[3,2-b]pyridin-2-yl]pyridin-2-yl}acetamide] |
| 0.089 | 0.249 | CC(=O)Nc1cc(-c2[nH]c3cccnc3c2-c2cn[nH]c2)ccn1 [Example 189, N-(4-(3-(1H-Pyrazol-4-yl)-1H-pyrrolo[3,2-b]pyridin-2-yl)pyridin-2-yl)acetamide] |
| 8.47 | 0.001 | CC(=O)Nc1cc(-c2[nH]c3c(CN4CCN(C)CC4)ccnc3c2-c2cccc(C(F)F)n2)ccn1 [Example 139, N-(4-{3-[6-(Difluoromethyl)pyridin-2-yl]-7-[(4-methylpiperazin-1-yl)methyl]-1H-pyrrolo[3,2-b]pyridin-2-yl}pyridin-2-yl)acetamide] |
| 6.29 | 0.002 | CCOc1ccc(-c2c(-c3ccnc(NC(C)=O)c3)[nH]c3cc(Cl)cnc23)cn1 [Example 258, N-(4-(6-Chloro-3-(6-ethoxypyridin-3-yl)-1H-pyrrolo[3,2-b]pyridin-2-yl)pyridin-2-yl)acetamide] |
| > 15 | > 15 | COc1ccc(-c2c(-c3ccnc(NC(C)=O)c3)[nH]c3c(C)ccnc23)nc1 [Example 217, N-(4-(3-(5-Methoxypyridin-2-yl)-7-methyl-1H-pyrrolo[3,2-b]pyridin-2-yl)pyridin-2-yl)acetamide] |
| 8.82 | 0.0005 | CC(=O)Nc1cc(-c2[nH]c3c(C)ccnc3c2-c2nc(C(F)(F)F)cs2)ccn1 [Example 212, N-(4-(7-Methyl-3-(4-(trifluoromethyl)thiazol-2-yl)-1H-pyrrolo[3,2-b]pyridin-2-yl)pyridin-2-yl)acetamide] |
| 14.5 | 0.002 | CC(=O)N1CCN(CC(=O)Nc2cc(-c3[nH]c4cc(Cl)cnc4c3-c3ccc(F)cn3)ccn2)CC1 [Example 248, 2-(4-Acetylpiperazin-1-yl)-N-(4-(6-chloro-3-(5-fluoropyridin-2-yl)-1H-pyrrolo[3,2-b]pyridin-2-yl)pyridin-2-yl)acetamide] |
| > 15 | 0.003 | CC(=O)Nc1cc(-c2[nH]c3c(C4CCOCC4)ccnc3c2-c2cccc(C(F)F)n2)ccn1 [Example 135, N-(4-{3-[6-(Difluoromethyl)pyridin-2-yl]-7-(oxan-4-yl)-1H-pyrrolo[3,2-b]pyridin-2-yl}pyridin-2-yl)acetamide] |
| 0.005 | 0.002 | COc1ccc(-c2c(-c3ccnc(NC(=O)C4CC4)c3)[nH]c3cccnc23)cn1 [Example 53, N-{4-[3-(6-Methoxypyridin-3-yl)-1H-pyrrolo[3,2-b]pyridin-2-yl]pyridin-2-yl}cyclopropanecarboxamide] |
| > 15 | 0.188 | CC(=O)Nc1cc(-c2[nH]c3c(N4CCCC4)ccnc3c2-c2cccc(C(F)F)n2)ccn1 [Example 156, N-(4-{3-[6-(Difluoromethyl)pyridin-2-yl]-7-(pyrrolidin-1-yl)-1H-pyrrolo[3,2-b]pyridin-2-yl}pyridin-2-yl)acetamide] |
